Test results taken from ChEMBL document CHEMBL1201862, “PubChem BioAssay data set” (2004).
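96-well plates; 48 h exposure; 5 concentrations. Endpoints by linear interpolation between flanking doses. Not reached: highest tested concentration assigned. GI50 is the concentration that inhibits growth by half.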 The source made the active and inactive calls. Cut-off read from the data, not from the text of the source: active = GI50 up to about 1.1 µM and inactive = higher.

What was measured:
Assay in all cases: NCI anticancer screen, dose series, 48 h
HCC 2998 = tested on: HCC 2998
Hs-578T = tested on: Hs-578T
OVCAR-4 = tested on: OVCAR-4
LOX IMVI = tested on: LOX IMVI
K562 = tested on: K562
SR = tested on: SR
UACC-62 = tested on: UACC-62
HOP-62 = tested on: HOP-62
U-251 = tested on: U-251
UACC-257 = tested on: UACC-257
HCT-116 = tested on: HCT-116
RXF 393 = tested on: RXF 393
M14 = tested on: M14
786-0 = tested on: 786-0
IGROV-1 = tested on: IGROV-1
OVCAR-8 = tested on: OVCAR-8
RPMI-8226 = tested on: RPMI-8226
DU-145 = tested on: DU-145
NCI-H522 = tested on: NCI-H522

| SMILES | GI50 (HCC 2998) | GI50 (Hs-578T) | GI50 (OVCAR-4) | GI50 (LOX IMVI) | GI50 (K562) | GI50 (SR) | GI50 (UACC-62) | GI50 (HOP-62) | GI50 (U-251) | GI50 (UACC-257) | GI50 (HCT-116) | GI50 (RXF 393) | GI50 (M14) | GI50 (786-0) | GI50 (IGROV-1) | GI50 (OVCAR-8) | GI50 (RPMI-8226) | GI50 (DU-145) | GI50 (NCI-H522) |
| --- | --- | --- | --- | --- | --- | --- | --- | --- | --- | --- | --- | --- | --- | --- | --- | --- | --- | --- | --- |
| CC(=O)Nc1ccc(-c2nc3ccccc3s2)cc1 | 73.8 µM (inactive) | 40.3 µM (inactive) | 29.4 µM (inactive) | 36.9 µM (inactive) | 1.96 µM (inactive) | 45.6 µM (inactive) | 66.7 µM (inactive) | 20.9 µM (inactive) | 27.5 µM (inactive) | > 100 µM (inactive) | 86.7 µM (inactive) | 23.6 µM (inactive) | 63.1 µM (inactive) | 24 µM (inactive) | 47.6 µM (inactive) | 35.4 µM (inactive) | > 100 µM (inactive) | 4.9 µM (inactive) |  |
| CC(C)OC(=O)c1ccc(NCc2cc(O)ccc2O)cc1Cl | 3.59 µM (inactive) | 23.7 µM (inactive) | 4.89 µM (inactive) | 3.27 µM (inactive) | 0.501 µM (active) | 0.695 µM (active) | 5.26 µM (inactive) | 18.9 µM (inactive) | 3.95 µM (inactive) | 11.4 µM (inactive) | 8.87 µM (inactive) | 2.61 µM (inactive) | 7.13 µM (inactive) | 2.09 µM (inactive) | 2.31 µM (inactive) | 2.77 µM (inactive) | 0.202 µM (active) | 9.08 µM (inactive) | 0.206 µM (active) |
| O=C1NC(c2cccc3ccccc23)Nc2ccc(Cl)cc21 (stereo unspecified) | 0.0105 µM (active) | 0.000624 µM (active) | 0.327 µM (active) | 0.000482 µM (active) | < 0.0001 µM (active) | 0.000229 µM (active) | 0.000214 µM (active) | 0.00261 µM (active) | 0.000977 µM (active) |  | 0.000912 µM (active) | 0.00394 µM (active) | 0.00115 µM (active) | 0.00193 µM (active) | 0.0181 µM (active) | 0.00935 µM (active) |  | 0.00452 µM (active) | 0.000546 µM (active) |
| CSc1ccc(/C=C2\N=C(c3ccccc3)N(c3nc4cc(Cl)c(F)cc4s3)C2=O)cc1 | 99.5 µM (inactive) | 21.7 µM (inactive) | 24.7 µM (inactive) | 20.3 µM (inactive) | 71.3 µM (inactive) | 37.4 µM (inactive) | 43.6 µM (inactive) | 25.2 µM (inactive) | 19.6 µM (inactive) | > 100 µM (inactive) | 36.2 µM (inactive) | 19.1 µM (inactive) | 58.3 µM (inactive) | 63.1 µM (inactive) | 36.5 µM (inactive) | 20 µM (inactive) | 26.1 µM (inactive) | 50 µM (inactive) |  |
| Cc1ccc2c(c1)-c1c(C#N)c(N)nc(-c3ccc(Cl)cc3)c1CCS2(=O)=O | 6.7 µM (inactive) | 6.15 µM (inactive) | > 83 µM (inactive) | 10.1 µM (inactive) | 2.8 µM (inactive) | 1.87 µM (inactive) | 4.37 µM (inactive) | 6.12 µM (inactive) | 7.14 µM (inactive) | 5.24 µM (inactive) | 4.45 µM (inactive) |  | 5.21 µM (inactive) | 6.19 µM (inactive) | 5.43 µM (inactive) | 14.8 µM (inactive) | 3.66 µM (inactive) | 17.2 µM (inactive) | 2.14 µM (inactive) |
| COc1cc(/C=C2\C(=O)N(Cc3ccccc3)C(c3ccccc3)S2(=O)=O)cc(OC)c1OC (stereo unspecified) | > 100 µM (inactive) | 9.73 µM (inactive) | 17.5 µM (inactive) | 27.5 µM (inactive) | 5.12 µM (inactive) | 14.3 µM (inactive) | 35.2 µM (inactive) | > 100 µM (inactive) | 92.3 µM (inactive) | 26.2 µM (inactive) | 17.6 µM (inactive) | 62.7 µM (inactive) | 52.7 µM (inactive) | 29.6 µM (inactive) |  | 37.2 µM (inactive) |  | 91.6 µM (inactive) | 14.2 µM (inactive) |
| CCN1CCC(O)(c2ccc(Oc3ccccc3)cc2)C(C(=O)c2ccc(Oc3ccccc3)cc2)C1 (stereo unspecified) | 6.62 µM (inactive) | 23.7 µM (inactive) | 10.6 µM (inactive) | 3.84 µM (inactive) | 13.7 µM (inactive) | 5.74 µM (inactive) | 13.2 µM (inactive) | 11.9 µM (inactive) | 11.6 µM (inactive) | 12.7 µM (inactive) | 9.27 µM (inactive) | 22.2 µM (inactive) | 11.6 µM (inactive) | 5.5 µM (inactive) | 15.4 µM (inactive) | 17.1 µM (inactive) | 2.46 µM (inactive) | 14.3 µM (inactive) | 19.6 µM (inactive) |
